Experimental data: ChEMBL document CHEMBL3425445, “Synthesis, crystal structure and biological evaluation of substituted quinazolinone benzoates as novel antituberculosis agents targeting acetohydroxyacid synthase” (Eur J Med Chem, 2015)
≈ marks a conversion by molar mass, not a printed value.

Assays:
Type in all cases: functional
[1] = system: Mycobacterium tuberculosis; assay: Antitubercular activity against rifampin, isoniazid and streptomycin-resistant Mycobacterium tuberculosis infected in human THP-1 cells assessed as inhibition of intracellular activity at 20 mg/L after 4 days; conditions: THP-1, 96 h
[2] = system: Mycobacterium tuberculosis; assay: Antitubercular activity against rifampin and isoniazid-resistant Mycobacterium tuberculosis assessed as inhibition of bacterial growth after 4 weeks by two-fold dilution technique; conditions: 672 h
[3] = system: Mycobacterium tuberculosis; assay: Antitubercular activity against rifampin, isoniazid and ethambutol-resistant Mycobacterium tuberculosis infected in human THP-1 cells assessed as inhibition of intracellular activity at 10 mg/L after 4 days; conditions: THP-1, 96 h
[4] = system: Mycobacterium tuberculosis; assay: Antitubercular activity against rifampin and isoniazid-resistant Mycobacterium tuberculosis infected in human THP-1 cells assessed as inhibition of intracellular activity at 20 mg/L after 4 days; conditions: THP-1, 96 h
[5] = system: Mycobacterium tuberculosis; assay: Antitubercular activity against rifampin, isoniazid, kanamycin and ofloxacin-resistant Mycobacterium tuberculosis assessed as inhibition of bacterial growth after 4 weeks by two-fold dilution technique; conditions: 672 h
[6] = system: Mycobacterium tuberculosis; assay: Antitubercular activity against rifampin, isoniazid and ethambutol-resistant Mycobacterium tuberculosis assessed as inhibition of bacterial growth after 4 weeks by two-fold dilution technique; conditions: 672 h
[7] = system: Mycobacterium tuberculosis; assay: Antitubercular activity against rifampin, isoniazid, amikacin and ofloxacin-resistant Mycobacterium tuberculosis assessed as inhibition of bacterial growth after 4 weeks by two-fold dilution technique; conditions: 672 h
[8] = system: Mycobacterium tuberculosis; assay: Antitubercular activity against isoniazid-resistant Mycobacterium tuberculosis infected in human THP-1 cells assessed as inhibition of intracellular activity at 10 mg/L after 4 days; conditions: THP-1, 96 h
[9] = system: Mycobacterium tuberculosis; assay: Antitubercular activity against rifampin and isoniazid-resistant Mycobacterium tuberculosis infected in human THP-1 cells assessed as inhibition of intracellular activity at 10 mg/L after 4 days; conditions: THP-1, 96 h
[10] = system: Mycobacterium tuberculosis; assay: Antitubercular activity against isoniazid-resistant Mycobacterium tuberculosis infected in human THP-1 cells assessed as inhibition of intracellular activity at 20 mg/L after 4 days; conditions: THP-1, 96 h
[11] = system: Mycobacterium tuberculosis; assay: Antitubercular activity against isoniazid-resistant Mycobacterium tuberculosis assessed as inhibition of bacterial growth after 4 weeks by two-fold dilution technique; conditions: 672 h
[12] = system: Mycobacterium tuberculosis; assay: Antitubercular activity against rifampin, isoniazid, amikacin and ofloxacin-resistant Mycobacterium tuberculosis infected in human THP-1 cells assessed as inhibition of intracellular activity at 20 mg/L after 4 days; conditions: THP-1, 96 h
[13] = system: Mycobacterium tuberculosis; assay: Antitubercular activity against rifampin, isoniazid and streptomycin-resistant Mycobacterium tuberculosis infected in human THP-1 cells assessed as inhibition of intracellular activity at 10 mg/L after 4 days; conditions: THP-1, 96 h
[14] = system: Mycobacterium tuberculosis; assay: Antitubercular activity against rifampin, isoniazid, kanamycin and ofloxacin-resistant Mycobacterium tuberculosis infected in human THP-1 cells assessed as inhibition of intracellular activity at 10 mg/L after 4 days; conditions: THP-1, 96 h
[15] = system: Mycobacterium tuberculosis; assay: Antitubercular activity against rifampin, isoniazid, amikacin and ofloxacin-resistant Mycobacterium tuberculosis infected in human THP-1 cells assessed as inhibition of intracellular activity at 10 mg/L after 4 days; conditions: THP-1, 96 h
[16] = system: Mycobacterium tuberculosis; assay: Antitubercular activity against rifampin, isoniazid, kanamycin and ofloxacin-resistant Mycobacterium tuberculosis infected in human THP-1 cells assessed as inhibition of intracellular activity at 20 mg/L after 4 days; conditions: THP-1, 96 h
[17] = system: Mycobacterium tuberculosis; assay: Antitubercular activity against rifampin, isoniazid and streptomycin-resistant Mycobacterium tuberculosis assessed as inhibition of bacterial growth after 4 weeks by two-fold dilution technique; conditions: 672 h
[18] = system: Mycobacterium tuberculosis; assay: Antitubercular activity against rifampin, isoniazid and ethambutol-resistant Mycobacterium tuberculosis infected in human THP-1 cells assessed as inhibition of intracellular activity at 20 mg/L after 4 days; conditions: THP-1, 96 h

SMILES | inhibition at 20 µg/mL [1] | MIC [2] | inhibition at 10 µg/mL [3] | inhibition at 20 µg/mL [4] | MIC [5] | MIC [6] | MIC [7] | inhibition at 10 µg/mL [8] | inhibition at 10 µg/mL [9] | inhibition at 20 µg/mL [10] | MIC [11] | inhibition at 20 µg/mL [12] | inhibition at 10 µg/mL [13] | inhibition at 10 µg/mL [14] | inhibition at 10 µg/mL [15] | inhibition at 20 µg/mL [16] | MIC [17] | inhibition at 20 µg/mL [18]
O=C(On1c(-c2cccc(F)c2)nc2ccccc2c1=O)c1cccc(F)c1 | 53.4% | 2.5 µg/mL (≈ 6.61 µM) | 24.2% | 47.5% | 2.5 µg/mL (≈ 6.61 µM) | 2.5 µg/mL (≈ 6.61 µM) | 2.5 µg/mL (≈ 6.61 µM) | 25.5% | 22.6% | 51.3% | 2.5 µg/mL (≈ 6.61 µM) | 46.2% | 26.2% | 26% | 22.8% | 52.2% | 2.5 µg/mL (≈ 6.61 µM) | 50.4%
O=C(On1c(-c2ccccc2)nc2ccccc2c1=O)c1cccc([N+](=O)[O-])c1 |  | 5 µg/mL (≈ 12.9 µM) |  |  | 5 µg/mL (≈ 12.9 µM) | 5 µg/mL (≈ 12.9 µM) | 5 µg/mL (≈ 12.9 µM) |  |  |  | 5 µg/mL (≈ 12.9 µM) |  |  |  |  |  | 5 µg/mL (≈ 12.9 µM) | 
O=C(On1c(-c2ccccc2)nc2ccccc2c1=O)c1cccc(Cl)c1 |  | 5 µg/mL (≈ 13.3 µM) |  |  | 5 µg/mL (≈ 13.3 µM) | 5 µg/mL (≈ 13.3 µM) | 5 µg/mL (≈ 13.3 µM) |  |  |  | 5 µg/mL (≈ 13.3 µM) |  |  |  |  |  | 5 µg/mL (≈ 13.3 µM) | 
COc1cccc(-c2nc3ccccc3c(=O)n2OC(=O)c2cccc([N+](=O)[O-])c2)c1 |  | 5 µg/mL (≈ 12 µM) |  |  | 5 µg/mL (≈ 12 µM) | 5 µg/mL (≈ 12 µM) | 5 µg/mL (≈ 12 µM) |  |  |  | 5 µg/mL (≈ 12 µM) |  |  |  |  |  | 5 µg/mL (≈ 12 µM) | 
COc1cccc(-c2nc3ccccc3c(=O)n2OC(=O)c2cccc(C(F)(F)F)c2)c1 |  | 10 µg/mL (≈ 22.7 µM) |  |  | 10 µg/mL (≈ 22.7 µM) | 10 µg/mL (≈ 22.7 µM) | 10 µg/mL (≈ 22.7 µM) |  |  |  | 10 µg/mL (≈ 22.7 µM) |  |  |  |  |  | 10 µg/mL (≈ 22.7 µM) | 
NNC(=O)c1ccncc1 [ISONIAZID] |  | > 8 µg/mL |  |  | > 8 µg/mL | > 8 µg/mL | > 8 µg/mL |  |  |  | > 8 µg/mL |  |  |  |  |  | > 8 µg/mL | 
CO[C@H]1/C=C/O[C@@]2(C)Oc3c(C)c(O)c4c(O)c(c(/C=N/N5CCN(C)CC5)c(O)c4c3C2=O)NC(=O)/C(C)=C\C=C\[C@H](C)[C@H](O)[C@@H](C)[C@@H](O)[C@@H](C)[C@H](OC(C)=O)[C@@H]1C [RIFAMPIN] |  | > 8 µg/mL |  |  | > 8 µg/mL | > 8 µg/mL | > 8 µg/mL |  |  |  | 0.4 µg/mL (≈ 0.486 µM) |  |  |  |  |  | > 8 µg/mL | 
COC(=O)c1ccccc1S(=O)(=O)NC(=O)Nc1nc(C)cc(C)n1 [SULFOMETURON METHYL] | 36.2% | 10 µg/mL (≈ 27.4 µM) | 17% | 34.4% | 10 µg/mL (≈ 27.4 µM) | 10 µg/mL (≈ 27.4 µM) | 10 µg/mL (≈ 27.4 µM) | 17.8% | 16.2% | 35.6% | 10 µg/mL (≈ 27.4 µM) | 31.8% | 18.5% | 18.8% | 15% | 36% | 10 µg/mL (≈ 27.4 µM) | 35%
